# Measurements taken from patent US20240124469A1, “PIM KINASE INHIBITOR” (Hangzhou Biosun Pharmaceutical Co., Ltd., priority 2021, published 2024).
# Experiments:
# Type in all cases: biochemical
# PIM2 = PIM2 (Homo sapiens (Human), UniProt Q9P1W9); assay: PIM2 kinase activity test (Mobility shift assay)
# Experimental: (§1) The efficacy of the compounds on the activity of PIM1/2/3 was tested by utilizing the Mobility shift assay method, with the specific procedures shown as follows: the test compounds were each dissolved in DMSO to be prepared into a 10 mM stock solution; for each of the test compounds, the stock solution was subjected to a 3-fold dilution from an initial concentration of 10 μM to obtain 10 concentrations.
# (§2) PIM1, PIM2, and PIM3 (all three kinases are from Carna) were each prepared with 1× Kinase buffer into a kinase solution at a concentration that was 2.5 times the final concentration. 10 μL of kinase solution at a concentration that was 2.5 times the final concentration was added to each of the compound wells and the positive control well, and 10 μL of 1× Kinase buffer was added to the negative control well. The plate was centrifuged at 1000 rpm for 30 s, mixed well by shaking, and then incubated at room temperature for 10 min. A mixed solution of ATP and Kinase substrate 20 (from GL) at a concentration that was 25/15 times the final concentration was prepared with 1× Kinase buffer. The reaction was started by adding 15 μL of the mixed solution of ATP and Kinase substrate 20 at a concentration that was 25/15 times the final concentration. The 384-well plate was centrifuged at 1000 rpm for 30 s, mixed well by shaking, and then incubated at room temperature for 60 min. 30 μL of stop assay buffer was added to stop the kinase reaction. The plate was centrifuged at 1000 rpm for 30 s and mixed well by shaking. The conversion rates were read using Caliper EZ Reader.
# (§3) The IC50 values of the test compounds for kinase activity were obtained by adopting a fitted dose-response curve of analytic software GraphPad Prism 5.
# PIM1 = PIM1 (Homo sapiens (Human), UniProt P11309); assay: PIM1 kinase activity test (Mobility shift assay)
# Chain of PIM1 (P11309 whole entry): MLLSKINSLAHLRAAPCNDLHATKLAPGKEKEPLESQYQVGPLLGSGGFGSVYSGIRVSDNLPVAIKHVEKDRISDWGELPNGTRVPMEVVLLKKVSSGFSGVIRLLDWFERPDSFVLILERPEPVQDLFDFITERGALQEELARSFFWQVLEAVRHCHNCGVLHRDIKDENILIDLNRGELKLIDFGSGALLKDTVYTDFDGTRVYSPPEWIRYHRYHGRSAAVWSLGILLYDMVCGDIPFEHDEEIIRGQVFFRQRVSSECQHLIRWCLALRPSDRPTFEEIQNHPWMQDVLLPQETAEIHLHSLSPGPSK
# Experimental: as §1, §2, §3
# PIM3 = PIM3 (Homo sapiens (Human), UniProt Q86V86); assay: PIM3 kinase activity test (Mobility shift assay)
# Experimental: as §1, §2, §3
# Chain of PIM2 (Q9P1W9 whole entry): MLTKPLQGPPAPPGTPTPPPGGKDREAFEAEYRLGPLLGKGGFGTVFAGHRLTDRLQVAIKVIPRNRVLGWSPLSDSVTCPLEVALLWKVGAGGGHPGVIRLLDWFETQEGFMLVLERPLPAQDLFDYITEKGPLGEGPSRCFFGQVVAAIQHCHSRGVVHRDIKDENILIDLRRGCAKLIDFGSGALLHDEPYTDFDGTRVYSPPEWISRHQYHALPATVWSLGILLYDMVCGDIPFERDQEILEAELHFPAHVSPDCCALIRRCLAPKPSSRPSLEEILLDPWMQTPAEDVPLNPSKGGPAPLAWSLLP
Compound,IC50 (PIM2),IC50 (PIM1),IC50 (PIM3)
"OC[C@H]1CC[C@H](Nc2ccc3ncc(-c4cccc(C(F)(F)F)c4)n3n2)CO1 [Compound 25, [(2R,5S)-5-[[3-[3-(trifluoromethyl)phenyl]imidazo[1,2-b]pyridazin-6-yl]amino]tetrahydropyran-2-yl]methanol]",> 10000 nM,100 to 1000 nM,1000 to 10000 nM
"FC(F)(F)c1cccc(-c2cnc3ccc(NC4CC5(CCN(C6CC6)CC5)C4)nn23)c1 [Compound 30, N-(7-cyclopropyl-7-azaspiro [3.5]nonan-2-yl)-3-(3-(trifluoromethyl)phenyl)imidazo[1,2-b]pyridazin-6-amine]",> 10000 nM,10 to 100 nM,1000 to 10000 nM
"OC[C@H]1CC[C@H](Nc2ccc3ncc(-c4ccc(C(F)(F)F)s4)n3n2)CO1 [Compound 47, [(2R,5S)-5-[[3-[5-(trifluoromethyl)-2-thienyl]imidazo[1,2-b]pyridazin-6-yl]amino]tetrahydropyran-2-yl]methanol]",> 10000 nM,10 to 100 nM,1000 to 10000 nM
"O[C@H]1CCC[C@@H](Nc2ccc3ncc(-c4cccc(C(F)(F)F)c4)n3n2)CC1 (relative stereo) [Compound 23, cis-4-[[3-[3-(trifluoromethyl)phenyl]imidazo[1,2-b]pyridazin-6-yl]amino]cycloheptanol]",> 10000 nM,100 to 1000 nM,1000 to 10000 nM
"CN1CCC(CNc2ccc3ncc(-c4cccc(N(C)C)c4)n3n2)CC1 [Compound 50, 3-(3-(dimethylamino)phenyl)-N-((1-methylpiperidin-4-yl)methyl)imidazo[1,2-b]pyridazin-6-amine]",> 10000 nM,100 to 1000 nM,1000 to 10000 nM
"CC(C)(O)[C@H]1CC[C@H](Nc2ccc3nc(C(=O)O)c(-c4cccc(C(F)(F)F)c4)n3n2)CC1 [Compound 42, 6-(((1r,4r)-4-(2-hydroxypropan-2-yl)cyclohexyl)amino)-3-(3-(trifluoromethyl)phenyl)imidazo[1,2-b]pyridazine-2-carboxylic acid]",> 10000 nM,100 to 1000 nM,1000 to 10000 nM
"O[C@@H]1CCCC[C@@H](Nc2ccc3ncc(-c4cccc(C(F)(F)F)c4)n3n2)C1 [Compound 44, (1R,3R)-3-((3-(3-(trifluoromethyl)phenyl)imidazo[1,2-b]pyridazin-6-yl)amino)cycloheptanol]",> 10000 nM,100 to 1000 nM,> 10000 nM
"CC(C)(O)[C@H]1CC[C@H](Nc2ccc3ncc(-c4cccc(-c5ccco5)c4)n3n2)CC1 [Compound 48, 2-((1r,4r)-4-((3-(3-(furan-2-yl)phenyl)imidazo[1,2-b]pyridazin-6-yl)amino)cyclohexyl)propan-2-ol]",> 10000 nM,10 to 100 nM,100 to 1000 nM
"CC(C)(O)[C@H]1CC[C@H](Nc2ccc3nc(C#N)c(-c4cccc(C(F)(F)F)c4)n3n2)CC1 [Compound 43, 6-(((1r,4r)-4-(2-hydroxypropan-2-yl)cyclohexyl)amino)-3-(3-(trifluoromethyl)phenyl)imidazo[1,2-b] pyridazine-2-carbonitrile]",> 10000 nM,100 to 1000 nM,> 10000 nM

# Now from value to compound:
IC50 (PIM2),IC50 (PIM1),IC50 (PIM3),Compound
100 to 1000 nM,10 to 100 nM,100 to 1000 nM,"CC(C)(O)[C@H]1CC[C@H](Nc2ccc3ncc(-c4cccs4)n3n2)CC1 [Compound 14, 2-[(1r,4r)-4-[[3-(2-thienyl)imidazo[1,2-b]pyridazin-6-yl]amino]cyclohexyl]propan-2-ol]"
1000 to 10000 nM,10 to 100 nM,1000 to 10000 nM,"O[C@@H]1CCC[C@@H](Nc2ccc3ncc(-c4cccc(C(F)(F)F)c4)n3n2)CC1 [Compound 45, (1R,4R)-4-((3-(3-(trifluoromethyl)phenyl)imidazo[1,2-b]pyridazin-6-yl)amino)cycloheptanol]"
100 to 1000 nM,10 to 100 nM,100 to 1000 nM,"FC(F)(F)c1cccc(-c2cnc3ccc(NCC4CC5(CCNC5)C4)nn23)c1 (stereo not drawn) [Compound 18, N-(6-azaspiro[3.4]octan-2-ylmethyl)-3-(3-(trifluoromethyl)phenyl)imidazo[1,2-b]pyridazin-6-amine]"
1000 to 10000 nM,10 to 100 nM,100 to 1000 nM,"CN1CCC2(CC1)CC(Nc1ccc3ncc(-c4cccc(C(F)(F)F)c4)n3n1)C2 [Compound 26, N-(7-methyl-7-azaspiro[3.5]nonan-2-yl)-3-(3-(trifluoromethyl)phenyl)imidazo[1,2-b]pyridazin-6-amine]"
1000 to 10000 nM,100 to 1000 nM,> 10000 nM,"CC(C)(O)[C@H]1CC[C@H](Nc2ccc3ncc(-c4cccc(S(C)(=O)=O)c4)n3n2)CC1 [Compound 51, 2-[(1r,4r)-4-[[3-(3-methylsulfonylphenyl)imidazo[1,2-b]pyridazin-6-yl]amino]cyclohexyl]propan-2-ol]"
1000 to 10000 nM,10 to 100 nM,1000 to 10000 nM,"OC[C@@H]1CC[C@@H](Nc2ccc3ncc(-c4cccc(C(F)(F)F)c4)n3n2)CO1 [Compound 22, [(2S,5R)-5-[[3-[3-(trifluoromethyl)phenyl]imidazo[1,2-b]pyridazin-6-yl]amino]tetrahydropyran-2-yl]methanol]"
1000 to 10000 nM,100 to 1000 nM,100 to 1000 nM,"FC(F)(F)c1cccc(-c2cnc3ccc(NC4CC5(CCNC5)C4)nn23)c1 (stereo not drawn) [Compound 24, N-(6-azaspiro [3.4]octan-2-yl)-3-(3-(trifluoromethyl)phenyl)imidazo[1,2-b]pyridazin-6-amine]"
100 to 1000 nM,100 to 1000 nM,100 to 1000 nM,"CC(C)(O)[C@H]1CC[C@H](Nc2ccc3ncc(-c4nccs4)n3n2)CC1 [Compound 17, 2-[(1r,4r)-4-[(3-thiazol-2-ylimidazo[1,2-b]pyridazin-6-yl)amino]cyclohexyl]propan-2-ol]"
100 to 1000 nM,2 to 10 nM,10 to 100 nM,"FC(F)(F)c1cccc(-c2cnc3ccc(NC4CCCNCC4)nn23)c1 (stereo not drawn) [Compound 19, N-(azepan-4-yl)-3-[3-(trifluoromethyl)phenyl]imidazo[1,2-b]pyridazin-6-amine]"
100 to 1000 nM,10 to 100 nM,100 to 1000 nM,"CN1CCCC(Nc2ccc3ncc(-c4cccc(C(F)(F)F)c4)n3n2)CC1 (stereo not drawn) [Compound 27, N-(1-methylazacycloheptan-4-yl)-3-[3-(trifluoromethyl)phenyl]imidazo[1,2-b]pyridazin-6-amine]"
1000 to 10000 nM,10 to 100 nM,100 to 1000 nM,"FC(F)(F)c1cccc(-c2cnc3ccc(NCC4CC5(CCNCC5)C4)nn23)c1 [Compound 15, N-(7-azaspiro [3.5]nonan-2-ylmethyl)-3-[3-(trifluoromethyl)phenyl]imidazo[1,2-b]pyridazin-6-amine]"
1000 to 10000 nM,100 to 1000 nM,1000 to 10000 nM,"O[C@H]1CCCC[C@@H](Nc2ccc3ncc(-c4cccc(C(F)(F)F)c4)n3n2)C1 [Compound 21, (1S,3R)-3-[[3-[3-(trifluoromethyl)phenyl]imidazo[1,2-b]pyridazin-6-yl]amino]cycloheptanol]"
